Reference: US20090131356A1, “miR-15, miR-26, miR-31, miR-145, miR-147, miR-188, miR-215, miR-216, miR-331, mmu-miR-292-3P REGULATED GENES AND PATHWAYS AS TARGETS FOR THERAPEUTIC INTERVENTION” (ASURAGEN, INC., priority 2006, published 2009)

Experiments:
[1] = tested on: H520 cells; assay: Alamar Blue proliferation assay, H520; assay type: cell-based, human
From the text: (§1) The inventors assessed the therapeutic effect of hsa-miR-147 for lung cancer by using 12 individual lung cancer cell lines. To measure cellular proliferation of lung cancer cells, the following parental non-small cell lung cancer (NSCLC) cells were used: cells derived from lung adenocarcinoma (A549, H1299, H522, H838, Calu-3, HCC827, HCC2935), cells derived from lung squamous cell carcinoma (H520, H226), cells derived from lung adenosquamous cell carcinoma (H596), cells derived from lung bronchioalveolar carcinoma (H1650), and cells derived from lung large cell carcinoma (H460). In addition to these parental cell lines, highly metastatic NSCLC cells were used that stably express the firefly luciferase gene: A549-luc, H460-luc, HCC827-luc, H1650-luc, H441-luc. Unlike the parental cell lines, these metastatic cells readily migrate to distant sites of the test animal and form metastases upon subcutaneous, orthotopic, or intravenous injection. Synthetic hsa-miR-147 or negative control miRNA was delivered via lipid-based transfection into A549, H1299, H522, H838, Calu-3, HCC827, HCC2935, H520, H596, H1650, H460, A549-luc, H460-luc, HCC827-luc, H1650-luc, H441-luc cells and via electroporation into H226 cells. Lipid-based reverse transfection was carried out in triplicates according to a published protocol and the following parameters: 5000-12000 cells per 96 well, 0.1-0.2 μl lipofectamine-2000 (Invitrogen, Carlsbad, Calif.) in 20 μl OptiMEM (Invitrogen), […] final concentration of miRNA in 100 μl (Ovcharenko et al., 2005). Electroporation of H226 cells was carried out using the BioRad GenePulserXcell™ instrument with the following settings: 5×10^6 cells with 5 μg miRNA in 200 μl OptiMEM, square wave pulse at 250 V for 5 ms. Electroporated H226 cells were seeded at 7000 cells per 96-well in a total volume of 100 μl. All cells except for Calu-3 cells were harvested 72 hours post transfection or electroporation for assessment of cellular proliferation. Calu-3 cells were harvested 10 days post transfection. […]

[2] = tested on: HCC827-luc cells; assay: Alamar Blue proliferation assay, HCC827-luc; assay type: cell-based, human
From the text: as §1

[3] = tested on: H226 cells; assay: Alamar Blue proliferation assay, H226 (electroporation); assay type: cell-based, human
From the text: as §1

[4] = tested on: H596 cells; assay: Alamar Blue proliferation assay, H596; assay type: cell-based, human
From the text: as §1

[5] = tested on: A549 cells; assay: Alamar Blue proliferation assay, A549; assay type: cell-based, human
From the text: as §1, with “ms.” for “ms. Electroporated H226 cells were seeded at 7000 cells per 96-well in a total volume of 100 μl. All cells except for Calu-3 cells were harvested 72 hours post transfection or electroporation for assessment of cellular proliferation. Calu-3 cells were harvested 10 days post transfection.”
(§2) The inventors determined sensitivity and specificity of hsa-miR-147 by administering hsa-miR-147 or negative control miRNA at increasing concentrations, ranging from 0 pM to 3 nM. Delivery of miRNA and cellular proliferation of A549 and H1299 cells was assessed as described above. […]

[6] = tested on: H1299 cells; assay: Alamar Blue proliferation assay, H1299; assay type: cell-based, human
From the text: as §1, with “ms.” for “ms. Electroporated H226 cells were seeded at 7000 cells per 96-well in a total volume of 100 μl. All cells except for Calu-3 cells were harvested 72 hours post transfection or electroporation for assessment of cellular proliferation. Calu-3 cells were harvested 10 days post transfection.”
as §2

[7] = tested on: H522 cells; assay: Alamar Blue proliferation assay, H522; assay type: cell-based, human
From the text: as §1

[8] = tested on: PC3 human prostate cancer cells; assay: Long-term growth curve with repeated electroporation, PC3; assay type: cell-based; details: 1.6 μM electroporated, repeated on days 7 and 14; by day 21
Method: To evaluate the therapeutic activity of hsa-miR-147 over an extended period of time, the inventors conducted growth curve experiments in the presence of miRNA for up to 21 days. Since in vitro transfections of naked interfering RNAs, such as synthetic miRNA, are transient by nature and compromised by the dilution of the oligo during ongoing cell divisions, miRNA was administered at multiple time points (Bartlett et al., 2006; Bartlett et al., 2007). To accommodate miRNA delivery into a large quantity of cells, the inventors employed the electroporation method to delivery hsa-miR-147 or negative control miRNA into PC3 and Du145 human prostate cancer cells. Briefly, 1×10^6 PC3 cells and 0.5×10^6 Du145 cells were electroporated with 1.6 μM hsa-miR-147 or negative control using the BioRad Gene Pulser Xcell™ instrument (BioRad Laboratories Inc., Hercules, Calif., USA), seeded and propagated in regular growth medium. Experiments with PC3 and Du145 cells were carried out in triplicates. When the control cells reached confluence (days 7 and 14), cells were harvested, counted and electroporated again with the respective miRNAs. […] The population doubling was calculated from these electroporation events using the formula PD=ln(Nf/N0)/ln2 and adjusting for the fact that approximately 72% of newly seeded cells adhere to the plate. […]

[9] = etoposide 10 μM, normalized to negative control miRNA (100%)
[10] = etoposide 50 μM, normalized to negative control miRNA (100%)
[11] = 30 nM, normalized to negative control miRNA (100% proliferation)

Compound: COc1cc([C@@H]2c3cc4c(cc3[C@@H](O[C@@H]3O[C@@H]5CO[C@@H](C)O[C@H]5[C@H](O)[C@H]3O)[C@H]3COC(=O)[C@H]23)OCO4)cc(OC)c1O [Etoposide, etoposide]
- % proliferation [1, 9]: 66.80%
- % proliferation [1, 10]: 48.53%
- % proliferation [2, 9]: 21.92%
- % proliferation [2, 10]: 0.75%
- % proliferation [3, 9]: 28.17%
- % proliferation [3, 10]: 9.33%
- % proliferation [4, 9]: 88.75%
- % proliferation [4, 10]: 73.39%
- % proliferation [5, 9]: 49.13%
- % proliferation [5, 10]: 42.18%
- % proliferation [6, 9]: 79.65%
- % proliferation [6, 10]: 54.38%
- % proliferation [7, 9]: 82.13%
- % proliferation [7, 10]: 61.08%

Compound: hsa-miR-147: Synthetic pre-miR-147 (Ambion AM17100; Dharmacon in vivo); mature sequence GUGUGUGGAAAUGCUUCUGC, MIMAT0000251, SEQ ID NO:114 (synthetic pre-miR (Ambion/Dharmacon), chemistry not given here; listed as Homo sapiens)
- % proliferation [1, 11]: 95.64%
- % proliferation [2, 11]: 61.15%
- % proliferation [3, 11]: 72.82%
- % proliferation [4, 11]: 91.60%
- % proliferation [5, 11]: 67.78%
- % proliferation [6, 11]: 78.22%
- % proliferation [7, 11]: 89.21%
- fate of PC3 cells in long-term growth curve [8]: eliminated
